Consider 12 molecules from patent publication US8927500B2, “Peptidomimetic macrocycles” (Aileron Therapeutics, Inc., priority 2012, dated 2015).

The target of assay [1] is T1, MDMX (Homo sapiens, UniProt O15151).
T1 sequence (O15151 1-125): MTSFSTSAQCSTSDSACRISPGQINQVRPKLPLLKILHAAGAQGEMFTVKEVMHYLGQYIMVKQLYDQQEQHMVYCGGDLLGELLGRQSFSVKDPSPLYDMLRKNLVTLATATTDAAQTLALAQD
As to the kind of experiment: Competitive fluorescence polarization assay for MDMX. The format is binding. The following applies: competitive FP assay; for IC50: read-out: IC50 (MDMX); for Ki: read-out: Ki (MDMX). (In general: Fluorescence polarisation rises when a labelled molecule tumbles more slowly, as on binding a larger partner.)

Assay [2] has as its target MDM2 (Homo sapiens, UniProt Q00987). The experiment in a line: Competitive fluorescence polarization assay for MDM2. The format is binding. The following applies: competitive FP assay, MDM2; for IC50: read-out: IC50 (MDM2); for Ki: read-out: Ki (MDM2).
Assay [3] concerns Caspase 3. The experiment in a line: Caspase 3 detection assay in SJSA1 cells. The following applies: 48 h, Caspase 3 activation over DMSO-treated cells; for caspase 0.3 uM: 0.3 uM peptide; for caspase 3 uM: 3 uM peptide; for caspase 10 uM: 10 uM peptide; for caspase 30 uM: 30 uM peptide. The class given is cell-based.

Where a SMILES comes first, the peptide text is derived from it. Bridges are numbered along the chain shown (N, C = ends). [ ]: non-standard residue; d: D form. R8 = C=CCCCCCC[C@@](C)(N)C(=O)O; Cha = N[C@@H](CC1CCCCC1)C(=O)O; Cba = N[C@@H](CC1CCC1)C(=O)O; S5 = C=CCCC[C@](C)(N)C(=O)O; Nle = CCCC[C@H](N)C(=O)O; Ac3c = NC1(C(=O)O)CC1; Aib = CC(C)(N)C(=O)O A value given as a limit tells only on which side of the number the result lay.

As usually defined, the IC50 is the concentration needed to halve the response being measured. For orientation: Ki means the dissociation constant of the complex between target and ligand, obtained from inhibition or displacement.

MDM2, sequence (Q00987 1-125): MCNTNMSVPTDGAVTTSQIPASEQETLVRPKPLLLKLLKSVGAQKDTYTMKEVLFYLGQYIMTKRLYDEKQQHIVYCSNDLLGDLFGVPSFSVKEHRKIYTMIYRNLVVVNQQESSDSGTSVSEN

For the molecule `CC(=O)N[C@@H](CCC(=O)O)C(=O)N[C@H](C(=O)N[C@@H](Cc1ccccc1)C(=O)N[C@]1(C)CCCCCCC=CCCC[C@@](C)(C(=O)N[C@@H](CO)C(=O)N[C@@H](CC(C)C)C(=O)N[C@@H](C)C(N)=O)NC(=O)[C@H](CC(C)C)NC(=O)[C@H](CCC(N)=O)NC(=O)[C@H](C)NC(=O)[C@H](Cc2c[nH]c3ccccc23)NC(=O)[C@H](Cc2ccc(O)cc2)NC(=O)[C@H](C(C)C)NC1=O)[C@@H](C)O` [compound 127] (Ac-ETF[R8]VYWAQL[S5]SLA-NH2; staple 4-11), in assay [1], the IC50 lay within 0.1 to 1 µM and the Ki was in the range of 0.01 to 0.1 µM. In addition, in assay [2], the IC50 was less than 0.01 µM and the Ki is less than 0.01 µM. In addition, in assay [3], the “caspase 0.3 uM” value amounted to 1, the “caspase 3 uM” value came out at 1, the “caspase 10 uM” value turned out to be 4 and the “caspase 30 uM” value is reported as 13.

Take `CC(=O)N[C@@H](CC(C)C)C(=O)N[C@H](C(=O)N[C@@H](Cc1ccccc1)C(=O)N[C@]1(C)CCCCCCC=CCCC[C@@](C)(C(=O)N[C@@H](CO)C(=O)N[C@@H](C)C(=O)N[C@@H](Cc2ccccc2)C(=O)N[C@@H](C)C(N)=O)NC(=O)[C@H](CC2CCC2)NC(=O)[C@H](CCC(N)=O)NC(=O)[C@H](C)NC(=O)[C@H](Cc2c[nH]c3ccccc23)NC(=O)[C@H](Cc2ccc(O)cc2)NC(=O)[C@H](CCC(=O)O)NC1=O)[C@@H](C)O` [compound 242] (Ac-LTF[R8]EYWAQ[Cba][S5]SAFA-NH2; staple 4-11): in assay [1], the IC50 lay within 0.1 to 1 µM and the Ki was 0.01 to 0.1 µM. In assay [2], the IC50 is 0.01 to 0.1 µM and the Ki is less than 0.01 µM. Further, in assay [3], the “caspase 0.3 uM” value is listed as 1, the “caspase 3 uM” value amounted to 4, the “caspase 10 uM” value is listed as 5 and the “caspase 30 uM” value was determined as 18.

Consider `CC(=O)N[C@@H](CC(C)C)C(=O)N[C@H](C(=O)N[C@@H](Cc1ccccc1)C(=O)N[C@]1(C)CCCCCCC=CCCC[C@@](C)(C(=O)N[C@@H](C)C(=O)N[C@H](C(=O)NCC(N)=O)C(C)C)NC(=O)[C@H](CC(C)C)NC(=O)[C@H](CCC(N)=O)NC(=O)[C@H](C)NC(=O)[C@H](Cc2c[nH]c3ccccc23)NC(=O)[C@H](Cc2ccc(O)cc2)NC(=O)[C@H](C)NC1=O)[C@@H](C)O` (single isomer, unassigned) [compound 109], for which, in assay [3], the “caspase 3 uM” value turned out to be 4, the “caspase 10 uM” value was 16 and the “caspase 30 uM” value came out at 25.

With `CC(=O)N[C@@H](CC(C)C)C(=O)N[C@H](C(=O)N[C@@H](Cc1ccccc1)C(=O)N[C@]1(C)CCCCCCC=CCCC[C@@](C)(C(=O)N[C@@H](CO)C(=O)N[C@@H](C)C(=O)NC(C)(C)C(N)=O)NC(=O)[C@H](CC(C)C)NC(=O)[C@H](CCC(N)=O)NC(=O)[C@H](C)NC(=O)[C@H](Cc2c[nH]c3ccccc23)NC(=O)[C@H](Cc2ccc(O)cc2)NC(=O)[C@H](C)NC1=O)[C@@H](C)O` [compound 10] (Ac-LTF[R8]AYWAQL[S5]SA[Aib]-NH2; staple 4-11), in assay [1], the IC50 was 0.1 to 1 µM and the Ki was 0.01 to 0.1 µM. Further, in assay [2], the IC50 fell in the range of 0.1 to 1 µM and the Ki fell in the range of 0.01 to 0.1 µM. In assay [3], the “caspase 0.3 uM” value is recorded as 1, the “caspase 3 uM” value stood at 1, the “caspase 10 uM” value is 17 and the “caspase 30 uM” value came out at 32.

Consider `CCCC[C@H](NC(=O)[C@H](C)NC(=O)[C@H](C)NC(=O)[C@]1(C)CCCC=CCCCCCC[C@@](C)(NC(=O)[C@H](Cc2ccccc2)NC(=O)[C@@H](NC(=O)[C@H](CC(C)C)NC(C)=O)[C@@H](C)O)C(=O)N[C@@H](CCC(=O)O)C(=O)N[C@@H](Cc2ccc(O)cc2)C(=O)N[C@@H](Cc2c[nH]c3ccccc23)C(=O)N[C@@H](C)C(=O)N[C@@H](CCC(N)=O)C(=O)N[C@@H](CC2CCC2)C(=O)N1)C(=O)N[C@@H](C)C(N)=O` [compound 238] (Ac-LTF[R8]EYWAQ[Cba][S5]AA[Nle]A-NH2; staple 4-11), for which, in assay [1], the IC50 is 0.01 to 0.1 µM and the Ki was in the range of 0.01 to 0.1 µM. For the same molecule, in assay [2], the IC50 was 0.01 to 0.1 µM and the Ki was less than 0.01 µM. For the same molecule, in assay [3], the “caspase 0.3 uM” value was found to be 1, the “caspase 3 uM” value was determined as 2, the “caspase 10 uM” value is 4 and the “caspase 30 uM” value came to 21.

Consider `CC(=O)N[C@@H](C)C(=O)N[C@@H](C)C(=O)N[C@@H](CC(C)C)C(=O)N[C@H](C(=O)N[C@@H](Cc1ccccc1)C(=O)N[C@]1(C)CCCCCCC=CCCC[C@@](C)(C(=O)N[C@@H](CO)C(=O)N[C@@H](C)C(=O)N[C@@H](C)C(=O)N[C@@H](C)C(=O)N[C@H](C)C(N)=O)NC(=O)[C@H](CC2CCC2)NC(=O)[C@H](CCC(N)=O)NC(=O)[C@H](C)NC(=O)[C@H](Cc2c[nH]c3ccccc23)NC(=O)[C@H](Cc2ccc(O)cc2)NC(=O)[C@H](CCC(=O)O)NC1=O)[C@@H](C)O` (single isomer, unassigned) [compound 358], for which, in assay [3], the “caspase 0.3 uM” value was 1, the “caspase 3 uM” value was 3, the “caspase 10 uM” value was 6 and the “caspase 30 uM” value was found to be 24. In addition, the “caspase 1 uM” value in assay [3] (1 uM peptide) came out at 2.

In the case of `CC(=O)N[C@@H](Cc1ccccc1)C(=O)N[C@]1(C)CCCCCCC=CCCC[C@@](C)(C(=O)N[C@@H](C)C(=O)N[C@@H](C)C(=O)N[C@@H](CC2CCCCC2)C(N)=O)NC(=O)[C@H](CC(C)C)NC(=O)C2(CC2)NC(=O)[C@H](CCC(=O)O)NC(=O)[C@H](Cc2c[nH]c3ccccc23)NC(=O)[C@H](Cc2ccc(O)cc2)NC(=O)[C@H](C)NC1=O` [compound 21] (Ac-F[R8]AYWE[Ac3c]L[S5]AA[Cha]-NH2; staple 2-9), in assay [1], the IC50 lay within 0.01 to 0.1 µM and the Ki was in the range of 0.01 to 0.1 µM. In assay [2], the IC50 lay in the range of 0.1 to 1 µM and the Ki was 0.01 to 0.1 µM.

Consider `CCCC[C@H](NC(=O)[C@H](C)NC(=O)[C@H](C)NC(=O)[C@]1(C)CCCC=CCCCCCC[C@@](C)(NC(=O)[C@H](Cc2ccccc2)NC(=O)[C@@H](NC(=O)[C@H](CC(C)C)NC(C)=O)[C@@H](C)O)C(=O)N[C@@H](C)C(=O)N[C@@H](Cc2ccc(O)cc2)C(=O)N[C@@H](Cc2c[nH]c3ccccc23)C(=O)N[C@@H](C)C(=O)N[C@@H](CCC(N)=O)C(=O)N[C@@H](CC(C)C)C(=O)N1)C(=O)N[C@@H](C)C(=O)NC(C)(C)C(N)=O` (single isomer, unassigned) [compound 404], for which, in assay [1], the IC50 was in the range of 0.01 to 0.1 µM and the Ki is less than 0.01 µM. Moreover, in assay [2], the IC50 fell in the range of 0.01 to 0.1 µM and the Ki is less than 0.01 µM.

Turning to `CC(=O)N[C@@H](CCC(=O)O)C(=O)N[C@H](C(=O)N[C@@H](Cc1ccccc1)C(=O)N[C@]1(C)CCCCCCC=CCCC[C@@](C)(C(=O)N[C@@H](CO)C(=O)N[C@@H](CO)C(=O)N[C@H](C)C(N)=O)NC(=O)[C@H](CC(C)C)NC(=O)[C@H](CCC(N)=O)NC(=O)[C@H](C)NC(=O)[C@H](Cc2c[nH]c3ccccc23)NC(=O)[C@H](Cc2ccc(O)cc2)NC(=O)[C@H](C(C)C)NC1=O)[C@@H](C)O` [compound 134] (Ac-ETF[R8]VYWAQL[S5]SS[dA]-NH2; staple 4-11), in assay [1], the IC50 lay in the range of 0.1 to 1 µM and the Ki was 0.01 to 0.1 µM. In assay [2], the IC50 is less than 0.01 µM and the Ki is less than 0.01 µM.

For `CC(=O)N[C@@H](CC(C)C)C(=O)N[C@H](C(=O)N[C@@H](Cc1ccccc1)C(=O)N[C@]1(C)CCCCCCC=CCCC[C@@](C)(C(=O)N[C@@H](C)C(=O)N[C@@H](C)C(=O)N[C@@H](C)C(=O)N[C@@H](C)C(=O)N[C@@H](C)C(=O)N[C@H](C)C(N)=O)NC(=O)[C@H](CC(C)C)NC(=O)C(C)(C)NC(=O)[C@H](C)NC(=O)[C@H](Cc2c[nH]c3ccccc23)NC(=O)[C@H](Cc2ccc(O)cc2)NC(=O)[C@H](CCC(=O)O)NC1=O)[C@@H](C)O` [compound 609] (Ac-LTF[R8]EYWA[Aib]L[S5]AAAAA[dA]-NH2; staple 4-11), the Ki is 0.01 to 0.1 µM in assay [1] and less than 0.01 µM in assay [2].

In the case of `CC[C@H](C)[C@H](NC(C)=O)C(=O)N[C@H](C(=O)N[C@@H](Cc1ccccc1)C(=O)N[C@]1(C)CCCCCCC=CCCC[C@@](C)(C(=O)N[C@@H](C)C(=O)N[C@@H](Cc2c[nH]cn2)C(=O)N[C@@H](Cc2ccccc2)C(=O)N[C@@H](C)C(N)=O)NC(=O)[C@H](CC(C)C)NC(=O)[C@H](CCC(N)=O)NC(=O)[C@H](C(C)C)NC(=O)[C@H](Cc2c[nH]c3ccccc23)NC(=O)[C@H](Cc2ccc(O)cc2)NC(=O)[C@H](CCC(=O)O)NC1=O)[C@@H](C)O` [compound 192] (Ac-ITF[R8]EYWVQL[S5]AHFA-NH2; staple 4-11), in assay [1], the IC50 lay in the range of 0.1 to 1 µM and the inhibition constant (Ki) was 0.01 to 0.1 µM. In assay [2], the IC50 fell in the range of 0.01 to 0.1 µM and the Ki is less than 0.01 µM.

In the case of `CSCC[C@H](NC(=O)[C@H](C)NC(=O)[C@H](CO)NC(=O)[C@]1(C)CCCC=CCCCCCC[C@@](C)(NC(=O)[C@H](Cc2ccccc2)NC(=O)[C@@H](NC(=O)[C@H](CC(C)C)NC(C)=O)[C@@H](C)O)C(=O)N[C@@H](C)C(=O)N[C@@H](Cc2ccc(O)cc2)C(=O)N[C@@H](Cc2c[nH]c3ccccc23)C(=O)N[C@@H](C)C(=O)N[C@@H](CCC(N)=O)C(=O)N[C@@H](CC(C)C)C(=O)N1)C(N)=O` [compound 5] (Ac-LTF[R8]AYWAQL[S5]SAM-NH2; staple 4-11), in assay [1], the IC50 was 0.1 to 1 µM and the Ki lay in the range of 0.01 to 0.1 µM. Further, in assay [2], the IC50 lay in the range of 0.01 to 0.1 µM and the Ki is less than 0.01 µM.
